These results are taken from ChEMBL document CHEMBL3868594, “From lead optimization to NDA approval for a new antimicrobial: Use of pre-clinical effect models and pharmacokinetic/pharmacodynamic mathematical modeling” (2016).

What all share (assay type): functional
Experiment [1] has as its system Mycobacterium tuberculosis. Briefly: Antibacterial activity against linezolid-resistant Mycobacterium tuberculosis H37Rv in hollow-fiber infection model assessed as reduction in bacterial burden at 600 mg, po at 24 hrs dose regimen measured after 3 weeks.
Experiment [2] relates to Mycobacterium tuberculosis. Briefly: Antibacterial activity against linezolid-resistant Mycobacterium tuberculosis H37Rv in hollow-fiber infection model assessed as reduction in bacterial burden at 858 mg, po at 24 hrs dose regimen measured after 3 weeks.
Experiment [3] relates to Mycobacterium tuberculosis. Briefly: Antibacterial activity against linezolid-resistant Mycobacterium tuberculosis H37Rv in hollow-fiber infection model assessed as reduction in bacterial burden at 1116 mg, po at 24 hrs dose regimen measured after 3 weeks.
Experiment [4] relates to Mycobacterium tuberculosis. Briefly: Antibacterial activity against linezolid-resistant Mycobacterium tuberculosis H37Rv in hollow-fiber infection model assessed as reduction in bacterial burden at 342 mg, po at 24 hrs dose regimen measured after 3 weeks.

With `CC(=O)NC[C@H]1CN(c2ccc(N3CCOCC3)c(F)c2)C(=O)O1` [LINEZOLID], the Activity amounted to 1.7 log10CFU/ml in experiment [1], 3 log10CFU/ml in experiment [2], 3 log10CFU/ml in experiment [3] and 0.5 log10CFU/ml in experiment [4].
